≈ marks a conversion by molar mass, not a printed value. Where a name gives a salt, the structure may show the parent alone. Read-outs that look alike come from different tables or passages of the source.
Key:
Assay in all cases: Antibacterial activity, microbroth dilution method (MIC)
[1] = tested on: control Gram-negative E. coli 25922 strain; assay type: cell-based, Escherichia coli; details: Escherichia coli
How it was run: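 Read-out: visual absence of growth. The lowest concentration meeting this gives the MIC, expressed in μg/mL, with microbroth dilution as the method.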

[2] = tested on: Gram-positive Staphylococcus aureus (S. aureus) 29213; assay type: cell-based; details: Staphylococcus aureus, Gram-positive S. aureus 29213
How it was run: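 Using broth microdilution, MIC endpoints (μg/mL) mark where visible growth no longer appears; the panel spans sensitive and control Gram-negative strains plus a Gram-positive strain.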

[3] = tested on: super sensitive Gram-negative Escherichia coli (E. coli) BAS849; assay type: cell-based; details: Escherichia coli, read-out: MIC, E. coli BAS849
How it was run: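 Broth microdilution; endpoint = no macroscopic growth; value = lowest inhibiting concn, μg/mL.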

[4] = super sensitive Gram-negative E. coli BAS849, microbroth dilution

CCNCCc1cc2cc3c(cc2n1C)CCCc1c-3[nH]c(=O)c(C(=O)O)c1O.O=C(O)C(F)(F)F [Cpd 165, 10-(2-(ethylamino)ethyl)-4-hydroxy-9-methyl-2-oxo-1,2,5,6,7,9-hexahydropyrido[3′,2′:6,7]cyclohepta[1,2-f]indole-3-carboxylic acid trifluoroacetate]
MIC [1]: 1 to 3.5 µg/mL | MIC [2]: 12.5 to 150 µg/mL | MIC [3]: < 1 µg/mL

CC1Cc2cc(N3C[C@@H]4[C@@H](N)[C@@H]4C3)ccc2-c2[nH]c(=O)c(C(=O)O)c(O)c21 (stereo partly drawn) [Cpd 110, 8-((cis,cis)-6-amino-3-azabicyclo[3.1.0]hexan-3-yl)-4-hydroxy-5-methyl-2-oxo-1,2,5,6-tetrahydrobenzo[h]quinoline-3-carboxylic acid trifluoroacetate]
MIC [1]: 12.5 to 150 µg/mL | MIC [2]: 12.5 to 150 µg/mL | MIC [3]: 3.5 to 12.5 µg/mL

CC1CCc2cc(N3C[C@@H]4[C@@H](N)[C@@H]4C3)ccc2-c2[nH]c(=O)c(C(=O)O)c(O)c21 (stereo partly drawn) [Cpd 13, 9-((cis,cis)-6-amino-3-azabicyclo[3.1.0]hexan-3-yl)-4-hydroxy-5-methyl-2-oxo-2,5,6,7-tetrahydro-1H-benzo[6,7]cyclohepta[1,2-b]pyridine-3-carboxylic acid hydrochloride]
MIC [1]: 1 to 3.5 µg/mL | MIC [2]: 3.5 to 12.5 µg/mL | MIC [3, 4]: < 1 µg/mL

N[C@@H]1[C@H]2CN(c3cc(F)c4c(c3)CCCc3c-4[nH]c(=O)c(C(=O)O)c3O)C[C@@H]12 [Cpd 125, 9-((cis,cis)-6-amino-3-azabicyclo[3.1.0]hexan-3-yl)-11-fluoro-4-hydroxy-2-oxo-2,5,6,7-tetrahydro-1H-benzo[6,7]cyclohepta[1,2-b]pyridine-3-carboxylic acid hydrochloride]
MIC [1]: 3.5 to 12.5 µg/mL | MIC [2]: 12.5 to 150 µg/mL | MIC [3, 4]: < 1 µg/mL

Cn1c2c(cc(C(=O)O)c1=O)CCCc1cc3c(ccn3C)cc1-2 [Cpd 133, 1,9-dimethyl-2-oxo-1,2,5,6,7,9-hexahydropyrido[3′,2′:6,7]cyclohepta[1,2-f]indole-3-carboxylic acid]
MIC [1]: 3.5 to 12.5 µg/mL (≈ 10.9 to 38.8 µM) | MIC [2]: 12.5 to 150 µg/mL (≈ 38.8 to 465 µM) | MIC [3, 4]: < 1 µg/mL

CCNCc1cc2cc3c(cc2n1C)OCCc1c-3[nH]c(=O)c(C(=O)O)c1O.Cl [Cpd 89, 10-((ethylamino)methyl)-4-hydroxy-9-methyl-2-oxo-2,5,6,9-tetrahydro-1H-pyrido[2′,3′:4,5]oxepino[3,2-f]indole-3-carboxylic acid hydrochloride]
MIC [1]: < 1 µg/mL | MIC [2]: 12.5 to 150 µg/mL | MIC [3, 4]: < 1 µg/mL

Cl.Cn1c(CN2CCCC2)cc2cc3c(cc21)CCCc1c-3[nH]c(=O)c(C(=O)O)c1O [Cpd 50, 4-hydroxy-9-methyl-2-oxo-10-(pyrrolidin-1-ylmethyl)-1,2,5,6,7,9-hexahydropyrido[3′,2′:6,7]cyclohepta[1,2-f]indole-3-carboxylic acid hydrochloride]
MIC [1]: < 1 µg/mL | MIC [2]: 3.5 to 12.5 µg/mL | MIC [3, 4]: < 1 µg/mL

Cl.Cn1c(CNC2(C)CC2)cc2cc3c(cc21)OCCc1c-3[nH]c(=O)c(C(=O)O)c1O [Cpd 167, 4-hydroxy-9-methyl-10-(((1-methylcyclopropyl)amino)methyl)-2-oxo-2,5,6,9-tetrahydro-1H-pyrido[2′,3′:4,5]oxepino[3,2-f]indole-3-carboxylic acid hydrochloride]
MIC [1]: < 1 µg/mL | MIC [2]: 1 to 3.5 µg/mL | MIC [3, 4]: < 1 µg/mL

CN(C)c1ccc2c(c1)CCCCc1c-2[nH]c(=O)c(C(=O)O)c1O [Cpd 5, 10-(dimethylamino)-4-hydroxy-2-oxo-1,2,5,6,7,8-hexahydrobenzo[7,8]cycloocta[1,2-b]pyridine-3-carboxylic acid]
MIC [1]: 12.5 to 150 µg/mL (≈ 38.1 to 457 µM) | MIC [2]: 3.5 to 12.5 µg/mL (≈ 10.7 to 38.1 µM) | MIC [3, 4]: < 1 µg/mL

CN(CCO)Cc1cc2cc3c(cc2n1C)CCCc1c-3[nH]c(=O)c(C(=O)O)c1O.Cl [Cpd 149, 4-hydroxy-10-(((2-hydroxyethyl)(methyl)amino)methyl)-9-methyl-2-oxo-1,2,5,6,7,9-hexahydropyrido[3′,2′:6,7]cyclohepta[1,2-f]indole-3-carboxylic acid hydrochloride]
MIC [1]: 3.5 to 12.5 µg/mL | MIC [2]: 3.5 to 12.5 µg/mL | MIC [3, 4]: < 1 µg/mL

C=CCNCc1cc2cc3c(cc2n1C)CCCc1c-3[nH]c(=O)c(C(=O)O)c1O.Cl [Cpd 153, 10-((allylamino)methyl)-4-hydroxy-9-methyl-2-oxo-1,2,5,6,7,9-hexahydropyrido[3′,2′:6,7]cyclohepta[1,2-f]indole-3-carboxylic acid hydrochloride]
MIC [1]: < 1 µg/mL | MIC [2]: 3.5 to 12.5 µg/mL | MIC [3, 4]: < 1 µg/mL

Cn1ccc2cc3c(cc21)C=CCc1c-3[nH]c(=O)c(C(=O)O)c1O [Cpd 16, 4-hydroxy-9-methyl-2-oxo-1,2,5,9-tetrahydropyrido[3′,2′:6,7]cyclohepta[1,2-f]indole-3-carboxylic acid]
MIC [1]: 1 to 3.5 µg/mL (≈ 3.1 to 10.9 µM) | MIC [2]: 1 to 3.5 µg/mL (≈ 3.1 to 10.9 µM) | MIC [3, 4]: < 1 µg/mL

CN1CCc2cc3c(cc21)CCCc1c(O)c(C(=O)O)c(=O)n(C)c1-3 [Cpd 135, 4-hydroxy-1,9-dimethyl-2-oxo-1,2,5,6,7,9,10,11-octahydropyrido[3′,2′:6,7]cyclohepta[1,2-f]indole-3-carboxylic acid]
MIC [1]: 12.5 to 150 µg/mL (≈ 36.7 to 441 µM) | MIC [2]: 3.5 to 12.5 µg/mL (≈ 10.3 to 36.7 µM) | MIC [3, 4]: < 1 µg/mL

CN1CCN(Cc2cc3cc4c(cc3n2C)CCCc2c-4[nH]c(=O)c(C(=O)O)c2O)CC1.Cl.Cl [Cpd 42, 4-hydroxy-9-methyl-10-((4-methylpiperazin-1-yl)methyl)-2-oxo-1,2,5,6,7,9-hexahydropyrido[3′,2′:6,7]cyclohepta[1,2-f]indole-3-carboxylic acid dihydrochloride]
MIC [1]: 3.5 to 12.5 µg/mL | MIC [2]: 3.5 to 12.5 µg/mL | MIC [3, 4]: < 1 µg/mL

O=C(O)c1c(O)c2c([nH]c1=O)-c1ccc(N3CCCC3)cc1CCCC2 [Cpd 126, 4-hydroxy-2-oxo-10-(pyrrolidin-1-yl)-1,2,5,6,7,8-hexahydrobenzo[7,8]cycloocta[1,2-b]pyridine-3-carboxylic acid]
MIC [1]: 12.5 to 150 µg/mL (≈ 35.3 to 423 µM) | MIC [2]: 1 to 3.5 µg/mL (≈ 2.82 to 9.88 µM) | MIC [3, 4]: < 1 µg/mL

CNCc1cc2cc3c(cc2n1C)CCc1c-3[nH]c(=O)c(C(=O)O)c1O.Cl [Cpd 20, 4-hydroxy-8-methyl-9-((methylamino)methyl)-2-oxo-2,5,6,8-tetrahydro-1H-indolo[6,5-h]quinoline-3-carboxylic acid hydrochloride]
MIC [1]: 3.5 to 12.5 µg/mL | MIC [2]: 12.5 to 150 µg/mL | MIC [3, 4]: 1 to 3.5 µg/mL

Cl.Cn1c(CNC(C)(C)C)cc2cc3c(cc21)OCCc1c-3[nH]c(=O)c(C(=O)O)c1O [Cpd 175, 10-((tert-butylamino)methyl)-4-hydroxy-9-methyl-2-oxo-2,5,6,9-tetrahydro-1H-pyrido[2′,3′:4,5]oxepino[3,2-f]indole-3-carboxylic acid hydrochloride]
MIC [1]: < 1 µg/mL | MIC [2]: 3.5 to 12.5 µg/mL | MIC [3, 4]: < 1 µg/mL

Cn1c2c(cc(C(=O)O)c1=O)CC=Cc1cc3c(ccn3C)cc1-2 [Cpd 130, 1,9-dimethyl-2-oxo-1,2,5,9-tetrahydropyrido[3′,2′:6,7]cyclohepta[1,2-f]indole-3-carboxylic acid]
MIC [1]: 3.5 to 12.5 µg/mL (≈ 10.9 to 39 µM) | MIC [2]: 12.5 to 150 µg/mL (≈ 39 to 468 µM) | MIC [3, 4]: < 1 µg/mL

Cl.O=C(O)c1c(O)c2c([nH]c1=O)-c1ccc(N3CCC4(CCNC4)C3)cc1CCC2 (stereo not drawn) [Cpd 122, 4-hydroxy-2-oxo-9-(2,7-diazaspiro[4.4]nonan-2-yl)-2,5,6,7-tetrahydro-1H-benzo[6,7]cyclohepta[1,2-b]pyridine-3-carboxylic acid hydrochloride]
MIC [1]: 12.5 to 150 µg/mL | MIC [2]: 12.5 to 150 µg/mL | MIC [3, 4]: 12.5 to 150 µg/mL

CC(CO)NCc1cc2cc3c(cc2n1C)OCCc1c-3[nH]c(=O)c(C(=O)O)c1O.Cl (stereo not drawn) [Cpd 178, 4-hydroxy-10-(((1-hydroxypropan-2-yl)amino)methyl)-9-methyl-2-oxo-2,5,6,9-tetrahydro-1H-pyrido[2′,3′:4,5]oxepino[3,2-f]indole-3-carboxylic acid hydrochloride]
MIC [1]: 12.5 to 150 µg/mL | MIC [2]: 12.5 to 150 µg/mL | MIC [3, 4]: < 1 µg/mL

CC1Cc2cc(N3CCC(N(C)C)C3)ccc2-c2[nH]c(=O)c(C(=O)O)c(O)c21.Cl (stereo not drawn) [Cpd 109, 8-(3-(dimethylamino)pyrrolidin-1-yl)-4-hydroxy-5-methyl-2-oxo-1,2,5,6-tetrahydrobenzo[h]quinoline-3-carboxylic acid hydrochloride]
MIC [1]: 12.5 to 150 µg/mL | MIC [2]: 12.5 to 150 µg/mL | MIC [3, 4]: 3.5 to 12.5 µg/mL

CN(C)c1ccc2c(c1)SCCc1c-2[nH]c(=O)c(C(=O)O)c1O [Cpd 185, 9-(dimethylamino)-4-hydroxy-2-oxo-1,2,5,6-tetrahydrobenzo[2,3]thiepino[4,5-b]pyridine-3-carboxylic acid]
MIC [1]: 12.5 to 150 µg/mL (≈ 37.6 to 451 µM) | MIC [2]: 12.5 to 150 µg/mL (≈ 37.6 to 451 µM) | MIC [3, 4]: < 1 µg/mL

CN(C)C1CCN(Cc2cc3cc4c(cc3n2C)CCCc2c-4[nH]c(=O)c(C(=O)O)c2O)CC1.Cl.Cl [Cpd 30, 10-((4-(dimethylamino)piperidin-1-yl)methyl)-4-hydroxy-9-methyl-2-oxo-1,2,5,6,7,9-hexahydropyrido[3′,2′:6,7]cyclohepta[1,2-f]indole-3-carboxylic acid dihydrochloride]
MIC [1]: 3.5 to 12.5 µg/mL | MIC [2]: 3.5 to 12.5 µg/mL | MIC [3, 4]: < 1 µg/mL

Cl.Cn1c(CNCc2ccncc2)cc2cc3c(cc21)CCCc1c-3[nH]c(=O)c(C(=O)O)c1O [Cpd 39, 4-hydroxy-9-methyl-2-oxo-10-(((pyridin-4-ylmethyl)amino)methyl)-1,2,5,6,7,9-hexahydropyrido[3′,2′:6,7]cyclohepta[1,2-f]indole-3-carboxylic acid hydrochloride]
MIC [1]: 3.5 to 12.5 µg/mL | MIC [2]: 3.5 to 12.5 µg/mL | MIC [3, 4]: < 1 µg/mL

CC(=O)NC1CCN(Cc2cc3cc4c(cc3n2C)CCCc2c-4[nH]c(=O)c(C(=O)O)c2O)C1.Cl (stereo not drawn) [Cpd 159, 10-((3-acetamidopyrrolidin-1-yl)methyl)-4-hydroxy-9-methyl-2-oxo-1,2,5,6,7,9-hexahydropyrido[3′,2′:6,7]cyclohepta[1,2-f]indole-3-carboxylic acid hydrochloride]
MIC [1]: 3.5 to 12.5 µg/mL | MIC [2]: 12.5 to 150 µg/mL | MIC [3, 4]: < 1 µg/mL

Reference: patent publication US20150038438A1, “ANTIBACTERIAL COMPOUNDS AND METHODS FOR USE” (PTC THERAPEUTICS, INC., priority 2011, published 2015)
